Earlier results on one compound are cited in US8785725B2, “Method for generating resistance against citrus diseases caused by insects, fungi, oomycetes, bacteria or nematodes” (Institute Valenciano de Investigaciones Agrarias, priority 2009, dated 2014).

Each structure is given as a SMILES string.

As for `C=C(C)C1CC=C(C)CC1` (stereo not drawn) [d-limonene, 1-methyl-4-(1-methylethenyl)cyclohexene], the miscibility with alcohol result (alcohol) is “miscible with alcohol”. Also, the solubility in water entry (water) is “insoluble in water”.
